Measured values: ChEMBL document CHEMBL4819128, “Discovery of indoline derivatives as anticancer agents via inhibition of tubulin polymerization” (Bioorg Med Chem Lett, 2021)
Calls of active or inactive are those of the source. The calls are words filed in the database; no cut-off is given here.

Columns and labels:
MGC-803 = experiment: Antiproliferative activity against human MGC-803 cells incubated for 48 hrs by CCK8 assay; assay type: functional, cell-based; settings: MGC-803, 48 h
[1] = molecular target: Tubulin beta (Homo sapiens) (UniProt P68371+Q9H4B7+Q13509+P04350+Q3ZCM7+P07437+Q13885+Q9BVA1+Q9BUF5+A6NNZ2); experiment: Binding affinity to beta-tubulin colchicine binding site in human KYSE-30 cells assessed as inhibition of tubulin-EBI adduct formation by EBI addition by Western blotting analysis; assay type: cell-based
Tubulin (Homo sapiens) [2] = molecular target: T1, Tubulin (Homo sapiens) (UniProt P68371+Q9H4B7+P0DPH7+P68366+Q13509+Q71U36+P04350+Q3ZCM7+P07437+P68363+Q9BQE3+Q6PEY2+Q13885+Q9BVA1+Q9BUF5); experiment: Inhibition of tubulin polymerization in human KYSE-30 cells assessed as reduction in cell viability; assay type: cell-based
Tubulin (Homo sapiens) [3] = molecular target: T1, Tubulin (Homo sapiens); experiment: Inhibition of tubulin polymerization in human KYSE-30 cells by immunofluorescence assay; assay type: cell-based
Tubulin (Homo sapiens) [4] = molecular target: T1, Tubulin (Homo sapiens); experiment: Inhibition of tubulin polymerization in human KYSE-450 cells assessed as reduction in cell viability upto 48 hrs; assay type: cell-based; settings: time hrs <=48, TDE = time-dependent effect
KYSE-450 [5] = experiment: Induction of cell morphological changes in human KYSE-450 cells measured after 48 hrs; assay type: functional, cell-based
KYSE-450 [6] = experiment: Inhibition of colony formation in human KYSE-450 cells at 0.188 to 0.313 uM after 7 days by crystal violet staining based assay; assay type: functional, cell-based; settings: dose 0.188-0.313 µM, time 7.0 day
Tubulin (Homo sapiens) [7] = molecular target: T1, Tubulin (Homo sapiens); experiment: […] of tubulin polymerization in human KYSE-450 cells assessed as inhibition of cell growth after 48 hrs relative to control; assay type: cell-based
Tubulin (Homo sapiens) [8] = molecular target: T1, Tubulin (Homo sapiens); experiment: Inhibition of tubulin polymerization in human KYSE-30 cells at 1.25 uM by immunofluorescence assay; assay type: cell-based

SMILES	IC50 (MGC-803)	Activity [1]	inhibition (Tubulin (Homo sapiens) [2])	inhibition (Tubulin (Homo sapiens) [3])	inhibition (Tubulin (Homo sapiens) [4])	Activity (KYSE-450 [5])	inhibition (KYSE-450 [6])	Activity (Tubulin (Homo sapiens) [7])	inhibition (Tubulin (Homo sapiens) [8])
O=C(Cc1ccccc1)N1CCc2cc(Br)ccc21	32.8 µM	–	–	–	–	–	–	–	–
COc1cc(C(=O)N2CCc3cc(Br)ccc32)cc(OC)c1OC	–	Active	Dose-Dependent Effect	Dose-Dependent Effect	Tde	Active	Active	Dose-Dependent Effect	Active
